{"source": "patent US4379165A", "about": "“Anti-convulsant” (priority 1981, dated 1983)", "key": {"[1]": {"test_system": "subcutaneous metrazol seizure threshold", "experiment": "subcutaneous Metrazol Seizure Threshold Test (sc Met), rats", "conditions": "rats (Table 7; title of Table 5 prints Mice); oral; up to 800 (mg/kg)", "description": "(§1) The solution was prepared by dissolving the compound in 30% polyethylene glycol 400. The compound was injected either orally or intraperitoneally in a volume of 0.01 ml/g body weight in mice and 0.04 ml/10 g body weight in rats.\n(§2) The profile of anti-convulsant activity for each substance was established by five tests: one electrical and four chemical. The electrical test employed was the maximal electroshock seizure (MES) pattern test. The four chemical tests included the subcutaneous Metrazol Seizure Threshold Test (sc Met), subcutaneous Bicuculline Seizure Threshold Test (sc Bic), subcutaneous Picrotoxin Seizure Threshold Test (sc Pic), and the subcutaneous Strychnine Seizure Pattern Test (sc Strych). These tests are conducted by administering the anti-convulsant compound or drug to the animals then giving the convulsive amount of electrical energy or chemical convulsant and measuring the ability of the test compound to prevent the production of convulsions.\n(§3) (b) scMet=Subcutaneous metrazol seizure threshold test. The test measures the ability of the test drug to afford complete protection against a subcutaneously administered convulsant dose of metrazol.\n(§4) (j) PI=Protective index, defined as the ratio of TD50 to ED50 (TD50/ED50)."}, "[2]": {"test_system": "subcutaneous picrotoxin seizure threshold", "conditions": "mice; intraperitoneal; up to 100 (mg/kg)", "description": "as §1, §2\n(d) scPic=Subcutaneous picrotoxin seizure threshold test.\n(j) PI=Protective index, defined as the ratio of TD50 to ED50 (TD50/ED50). The PI is a measure of the safety of the drug. A high PI value indicates a greater margin of safety between the effective dose for the pharmacological effect and the toxic dose producing side-effects. A compound with a high PI would be a safer drug to use."}, "[3]": {"test_system": "subcutaneous metrazol seizure threshold", "experiment": "subcutaneous Metrazol Seizure Threshold Test (sc Met), mice", "conditions": "for protection, sc Met: mice; for ED50: Mus musculus, ip, read-out: ED50 sc Met", "description": "as §1, §2, §3, §4"}, "[4]": {"experiment": "Rotorod Toxicity Test, rats", "format": "in vivo", "conditions": "rat, in vivo, po", "description": "as §1\n(§5) Untreated or normal animals can easily maintain their balance in this test."}, "lethality": {"test_system": "lethality", "experiment": "lethality, LD50", "format": "in vivo", "conditions": "mice; intraperitoneal; 24-hour period", "description": "The anti-convulsant amide (4) was administered to mice and rats as a solution. The solution was prepared by dissolving the compound in 30% polyethylene glycol 400. The compound was injected either orally or intraperitoneally in a volume of 0.01 ml/g body weight in mice and 0.04 ml/10 g body weight in rats."}, "in vivo [5]": {"experiment": "in vivo", "conditions": "mouse, ip", "description": "as §1\n(h) HD50=Hypnotic dose in 50% of the subjects tested.\n(l) Slope of regression line--This represents the rate of change in response (effect) for a change in dose. The higher the numerical value of the slope, the greater the rate of change in response."}, "[6]": {"test_system": "subcutaneous bicuculline seizure threshold", "experiment": "subcutaneous Bicuculline Seizure Threshold Test (sc Bic)", "conditions": "mice; intraperitoneal; up to 100 (mg/kg)", "description": "as §1\n(§6) The profile of anti-convulsant activity for each substance was established by five tests: one electrical and four chemical. […] The four chemical tests included the subcutaneous Metrazol Seizure Threshold Test (sc Met), subcutaneous Bicuculline Seizure Threshold Test (sc Bic), subcutaneous Picrotoxin Seizure Threshold Test (sc Pic), and the subcutaneous Strychnine Seizure Pattern Test (sc Strych). These tests are conducted by administering the anti-convulsant compound or drug to the animals then giving the convulsive amount of electrical energy or chemical convulsant and measuring the ability of the test compound to prevent the production of convulsions.\n(c) scBic=Subcutaneous bicuculline seizure threshold test.\nas §4"}, "[7]": {"test_system": "maximal electroshock seizures", "experiment": "maximal electroshock seizure (MES) pattern test, rats", "conditions": "Rattus norvegicus, po, read-out: ED50 MES", "description": "as §1\n(§7) The profile of anti-convulsant activity for each substance was established by five tests: one electrical and four chemical. The electrical test employed was the maximal electroshock seizure (MES) pattern test. […] These tests are conducted by administering the anti-convulsant compound or drug to the animals then giving the convulsive amount of electrical energy or chemical convulsant and measuring the ability of the test compound to prevent the production of convulsions.\n(§8) This test measures the ability of the test drug to abolish the hind-limb tonic-extensor component of maximal seizures induced by 50 mA of current delivered to the animals for 0.2 seconds."}, "[8]": {"test_system": "subcutaneous strychnine seizure pattern", "conditions": "mice; intraperitoneal; at 55-100 (mg/kg)", "description": "as §1, §6\n(e) ScStrych=Subcutaneous strychnine seizure pattern test. The test measures the ability of the test drug to abolish all toxic components of seizures induced by the subcutaneous injection of a convulsant dose of strychnine."}, "[9]": {"test_system": "maximal electroshock seizures", "experiment": "maximal electroshock seizure (MES) pattern test, mice", "conditions": "Mus musculus, ip, read-out: ED50 MES", "description": "as §1, §7, §8"}, "[10]": {"test_system": "ability to maintain balance on a rotating rod", "conditions": "mouse, in vivo, ip", "description": "as §1, §5"}, "in vivo [11]": {"experiment": "in vivo", "conditions": "mouse, ip", "remark": "listed apart in the source", "description": "as §1, §5"}}, "note": "Entries after “also recorded” stand apart in the source; their conditions may differ."}
{"molecule": "O=C1NC(=O)C(c2ccccc2)(c2ccccc2)N1", "note": "[Phenytoin]", "values": [{"measurement": "protection, sc Met", "setting": "[1]", "result": "No pro-"}, {"measurement": "protection, Picrotoxin", "setting": "[2]", "result": "No pro-"}, {"measurement": "protection, sc Met", "setting": "[3]; intraperitoneal, up to 100 (mg/kg)", "result": "No pro-"}, {"measurement": "protection, sc Met", "setting": "[3]; intraperitoneal, up to 300 (mg/kg)", "result": "No protect-; also recorded: No protection"}, {"measurement": "protection, sc Met", "setting": "[3]; oral, at / up to 300 (mg/kg)", "result": "No protection; also recorded: No pro-"}, {"measurement": "TD50", "setting": "[4]", "result": "> 3000", "unit": "mg/kg"}, {"measurement": "LD50 (lethality)", "setting": "lethality", "result": 229.61, "unit": "mg/kg"}, {"measurement": "TD50", "setting": "in vivo [5]", "result": 178, "unit": "mg/kg"}, {"measurement": "protection, Bicuculline", "setting": "[6]", "result": "No pro-"}, {"measurement": "ED50", "setting": "[7]", "result": 29.8, "unit": "mg/kg"}, {"measurement": "Max. Prot., Strychnine", "setting": "[8]", "result": 50, "unit": "%"}]}
{"molecule": "Nc1ccc(C(=O)Nc2ccccc2)cc1", "note": "[compound 1]", "values": [{"measurement": "ED50", "setting": "[9]", "result": 50.5, "unit": "mg/kg"}, {"measurement": "TD50", "setting": "[10]", "result": 111.30, "unit": "mg/kg"}, {"measurement": "ED50", "setting": "[3]", "result": 59.1, "unit": "mg/kg"}]}
{"molecule": "Nc1ccc(C(=O)NC2CCCCC2)cc1", "note": "[compound 2]", "values": [{"measurement": "ED50", "setting": "[9]", "result": 67.2, "unit": "mg/kg"}, {"measurement": "TD50", "setting": "in vivo [11]", "result": 189, "unit": "mg/kg"}, {"measurement": "ED50", "setting": "[3]", "result": 123, "unit": "mg/kg"}]}
{"molecule": "CCCCCNC(=O)c1ccc(N)cc1", "note": "[compound 3]", "values": [{"measurement": "ED50", "setting": "[9]", "result": 43, "unit": "mg/kg"}, {"measurement": "TD50", "setting": "in vivo [11]", "result": 68.5, "unit": "mg/kg"}, {"measurement": "ED50", "setting": "[3]", "result": 57.3, "unit": "mg/kg"}]}
{"molecule": "CCCN(CCC)C(=O)c1ccc(N)cc1", "note": "[compound 5]", "values": [{"measurement": "ED50", "setting": "[9]", "result": 61.7, "unit": "mg/kg"}, {"measurement": "TD50", "setting": "in vivo [11]", "result": 116, "unit": "mg/kg"}]}
